From patent publication US7119206B2, “Derivative of dihydro-dibenzo (a) anthracenes and their use as selective estrogen receptor modulators” (Eli Lilly and Company, priority 2002, dated 2006)

How the values were obtained:
[1] = molecular target: T1, ERAlpha receptor (Homo sapiens, UniProt P03372); assay: ER alpha competition binding assay (3H-Estradiol); conditions: 3H-Estradiol competition; IC50 converted to Ki using Cheng-Prusoff; read-out: ER binding Ki (ERα)
T1 construct: purchased PanVera
T1 sequence (P03372 1-595): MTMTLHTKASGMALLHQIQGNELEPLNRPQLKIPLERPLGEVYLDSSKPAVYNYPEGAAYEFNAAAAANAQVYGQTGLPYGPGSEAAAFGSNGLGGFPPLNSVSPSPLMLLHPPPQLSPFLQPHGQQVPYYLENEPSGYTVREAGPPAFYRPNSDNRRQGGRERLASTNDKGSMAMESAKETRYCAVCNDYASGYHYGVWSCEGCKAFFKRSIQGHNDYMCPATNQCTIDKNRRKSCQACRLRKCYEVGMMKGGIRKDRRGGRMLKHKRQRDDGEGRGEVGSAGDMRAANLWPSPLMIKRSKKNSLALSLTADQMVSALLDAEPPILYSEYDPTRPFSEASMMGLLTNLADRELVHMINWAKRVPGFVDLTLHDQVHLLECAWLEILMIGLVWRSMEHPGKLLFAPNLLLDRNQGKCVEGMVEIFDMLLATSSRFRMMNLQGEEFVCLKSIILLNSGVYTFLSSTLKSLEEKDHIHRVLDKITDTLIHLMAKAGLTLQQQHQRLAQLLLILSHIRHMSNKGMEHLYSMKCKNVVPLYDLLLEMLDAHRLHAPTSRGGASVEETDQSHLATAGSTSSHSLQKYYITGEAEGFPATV
Protocol: (§1) Competition binding assay is run in a buffer containing 50 mM Hepes, pH 7.5, 1.5 mM EDTA, 150 mM NaCl, 10% glycerol, 1 mg/ml ovalbumin and 5 mM DTT, using 0.025 μCi per well ^3H-Estradiol(NEN #NET517 at 118 Ci/mmol, 1 mCi/ml), 10 ng/well ERAlpha or ERbeta receptor (PanVera). Competing compounds are added at 10 different concentrations. Non-specific binding is determined in the presence of 1 μM of 17-B Estradiol. The binding reaction (140 μl) is incubated for 4 hours at room temperature, then 70 μl of cold DCC buffer is added to each reaction (DCC buffer contains per 50 ml of assay buffer, 0.75 g of charcoal (Sigma) and 0.25 g of dextran (Pharmacia)). Plates are mixed 8 minutes on an orbital shaker at 4° C. Plates are then centrifuged at 3,000 rpm at 4° C. for 10 minutes. An aliquot of 120 μl of the mix is transferred to another 96-well, white flat bottom plate (Costar) and 175 μl of Wallac Optiphase “Hisafe 3” scintillation fluid is added to each well. Plates are sealed and shaken vigorously on an orbital shaker. After an incubation of 2.5 hrs, read plates in a Wallac Microbeta counter. […] The Kd for ^3H-Estradiol is determined by saturation binding to ER alpha and ER beta receptors. The IC50 values for compounds are converted to Ki using Cheng-Prusoff equation and the Kd determined by saturation binding assay.

[2] = molecular target: T2, ERbeta receptor (Homo sapiens, UniProt Q92731); assay: ER beta competition binding assay (3H-Estradiol); conditions: 3H-Estradiol competition; IC50 converted to Ki using Cheng-Prusoff; read-out: ER binding Ki (ERβ)
T2 construct: purchased PanVera
T2 sequence (Q92731 whole entry): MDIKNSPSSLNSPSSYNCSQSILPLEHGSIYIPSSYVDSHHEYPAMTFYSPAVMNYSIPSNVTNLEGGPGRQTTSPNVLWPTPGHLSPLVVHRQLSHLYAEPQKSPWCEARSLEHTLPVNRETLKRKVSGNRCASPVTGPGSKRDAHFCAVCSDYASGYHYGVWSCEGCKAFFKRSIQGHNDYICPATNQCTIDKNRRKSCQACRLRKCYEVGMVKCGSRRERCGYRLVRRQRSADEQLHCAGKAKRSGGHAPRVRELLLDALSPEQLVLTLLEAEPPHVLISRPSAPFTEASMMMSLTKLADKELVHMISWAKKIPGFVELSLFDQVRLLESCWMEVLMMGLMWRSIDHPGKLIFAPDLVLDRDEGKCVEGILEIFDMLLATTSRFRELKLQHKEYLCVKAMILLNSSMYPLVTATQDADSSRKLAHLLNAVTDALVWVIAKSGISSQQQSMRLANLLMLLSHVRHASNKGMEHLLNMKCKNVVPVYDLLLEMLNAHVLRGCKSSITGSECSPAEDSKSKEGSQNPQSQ
Protocol: as §1

[3] = test system: MCF-7 breast adenocarcinoma cells; assay: MCF-7 proliferation assay (14C-thymidine), antagonist mode; assay type: cell-based; conditions: Homo sapiens, MCF7, antagonist mode, with 10 pM E2
Protocol: MCF-7 breast adenocarcinoma cells (ATCC HTB 22) are maintained in MEM (minimal essential medium, phenol red-free, Gibco BRL) supplemented with 10% fetal bovine serum (FBS) (V/V), L-glutamine (2 mM), sodium pyruvate (1 mM), HEPES ((N-[2-hydroxyethyl]piperazine-N′-[2-ethanesulfonic acid]10 mM}, non-essential amino acids(0.1 mM)and Penicillin Streptomycin(1×). Seven days prior to assay, MCF-7 cells are switched to assay media which is the same as maintenance medium except supplemented with 10% dextran-coated charcoal-stripped fetal bovine serum (DCC-FBS) assay medium in place of 10% FBS. MCF-7 cells are removed from flasks using 10× Trypsin EDTA (phenol red free, Gibco BRL) and diluted to 1× in (Ca++/Mg++ free HBSS (phenol red-free). Cells are adjusted to 80,000 cells/ml in assay medium. Approximately 8,000 cells (100 μl) are added to each well in 96 well Cytostar T scintillation plates (Amersham) and incubated at 37° C. in a 5% CO2 humidified incubator for 24 hours to allow cell adherence and equilibration after transfer. Serial dilutions of drugs are prepared in assay medium at 4× the final desired concentration). A 50 μl aliquot of drug dilutions (at 4× the final assay concentration) is transferred to duplicate wells followed by 50 μl assay medium for the agonist mode or 50 μl of 40 pM of E2 for the antagonist mode to a final volume of 200 μl. For each of the agonist plates, a basal level (media) and a maximum stimulated level (with 1 μM E2) is determined. For each of the antagonist plates, a basal level (media) and a E2 (10 pM) alone control is determined. After an additional 48 hours at 37° C. in a 5% CO2 humidified incubator, 20 μl of assay medium containing 0.01 μCi of ^14C-thymidine (52 mCi/mmol, […], Amersham) is added to each well. The plates are incubated overnight in the same incubator and then counted on the Wallac Microbeta counter. […] For the agonist mode, an EC50 and percent of maximum E2 stimulation and concentration of maximum stimulation is calculated.

[4] = test system: Ishikawa human endometrial tumor cells; assay: Ishikawa cell assay (PNPP readout), agonist mode; assay type: cell-based; conditions: Homo sapiens, Ishikawa; for Emax: % efficacy versus the response to Tamoxifen, read-out: Ishikawa Agonist % Eff
From the text: (§2) Ishikawa human endometrial tumor cells are maintained in MEM (minimum essential medium, with Earle's salts and L-Glutamine, Gibco BRL, Gaithersburg, Md.), supplemented with 10% fetal bovine serum (FBS) (V/V), (Gibco BRL). One day prior to assay, growth media is changed to assay medium, DMEM/F-12 (3:1) (Dulbecco's Modified Eagle Medium: Nutrient Mixture F-12, 3:1 Mixture, phenol red-free, Gibco BRL) supplemented with 5% dextran coated charcoal stripped fetal bovine serum (DCC-FBS) (Hyclone, Logen, Utah), L-Glutamine (2 mM), MEM sodium pyruvate (1 mM), HEPES (N-[2-hydroxyethyl]piperazine-N′-[2-ethanesulfonic acid] 2 mM) all from Gibco BRL). After an overnight incubation, ishikawa cells are rinsed with Dulbecco's Phosphate Buffered Saline (1×) (D-PBS) without Ca^+2 and Mg^+2 (Gibco BRL), and trypsinized by a 3 minute incubation with 0.25% Trypsin/EDTA, phenol red-free (Gibco BRL). Cells are resuspended in assay medium and adjusted to 250,000 cells/ml. Approximately 25,000 cells in a 100 ul media are added to flat-bottom 96 wells microculture plates (Costar 3596) and incubated at 37° C. in a 5% CO2 humidified incubator for 24 hours. The next day, serial dilutions of compounds are prepared in assay medium (at 6 times the final concentration in the assay). The assay is run in dual mode, agonist and antagonist modes. For the agonist mode, plates receive 25 μl/well of assay medium followed by 25 μl/well of diluted compounds (at 6× the final concentrations). For the antagonist mode, plates receive 25 μl/well of 6 nM E2 (β-Estradiol, Sigma, St. Louis, Mo.) followed by 25 μl/well of diluted compounds (at 6× the final concentrations). After an additional 48-hour incubation at 37° C. in a 5% CO2 humidified incubator, media is aspirated from wells and 100 μl fresh assay medium is added to each microculture. Serial dilutions of compounds are prepared and added to the cells as described above. After an additional 72 hour incubation at 37° C. in a 5% CO2 humidified incubator, the assay is quenched by removing media and rinsing plates twice in Dulbecco's Phosphate Buffered Saline (1×) (D-PBS) (Gibco BRL). The plates are dried for 5 min and frozen at −70° C. for at least 1 hour. The plates are then removed from the freezer and allowed to thaw at room temperature. To each well, 100 μl of 1-Step™ PNPP (Pierce Chemical Company, Rockford, Ill.) is added. After a 20-minute incubation, plates are read on a spectophotometer at 405 nm. The data is fitted to a linear interpolation to derive EC50 (for agonist mode) or IC50 (for antagonist mode) values. For the agonist mode, a % efficacy for each compound is calculated versus the response to Tamoxifen. For the antagonist mode, a % efficacy for each compound is calculated versus E2 (1 nM) alone.

[5] = test system: Ishikawa human endometrial tumor cells; assay: Ishikawa cell assay (PNPP readout), antagonist mode; assay type: cell-based; conditions: with 1 nM E2
From the text: as §2

Structure (SMILES)	Ki [1] [nM]	Ki [2] [nM]	IC50 [3] [nM]	EC50 [4] [nM]	Emax [4] [%]	IC50 [5] [nM]
Oc1ccc2c(c1)C(c1ccc(OCCN3CCCCC3)cc1)c1c(ccc3cc(O)ccc13)C2 (stereo not drawn) [Example 8, 12-[4-(2-Piperidin-1-yl-ethoxy)-phenyl]-7,12-dihydro-benzo[a]anthracene-3,10-diol]	1	3	7	3	75	130
Oc1ccc2c3c(ccc2c1)Cc1cccc(O)c1C3c1ccc(OCCN2CCCCC2)cc1 (stereo not drawn) [Example 12, 12-[4-(2-Piperidin-1-yl-ethoxy)-phenyl]-7,12-dihydro-benzo[a]anthracene-3,11-diol]	8	40	68	28	77	582
Oc1ccc2c3c(ccc2c1)Cc1c(O)cccc1C3c1ccc(OCCN2CCCCC2)cc1 (stereo not drawn) [Example 13, 12-[4-(2-Piperidin-1-yl-ethoxy)-phenyl]-7,12-dihydro-benzo[a]anthracene-3,8-diol]	1	5	3	1	121	50
